# Test results as given in patent US10167262B2, “Herbicidal substituted 3-arylpyrazoles” (FMC CORPORATION, priority 2014, dated 2019).
# What was measured:
# Format in all cases: in vivo
# [1] = tested on: blackgrass (Alopecurus myosuroides); assay: Test C pre-/postemergence greenhouse test, plant response rating 0-100; conditions: Postemergence; for Plant response rating, Blackgrass: scale 0 to 100;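 as to all read-outs here: 0 is no effect and 100 is complete control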
# Method in brief: (§1)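 After treatment, pots stay in the greenhouse 13–15 days before each species is compared with untreated controls and given a 0–100 visual score. Preemergence seeds are in loam blended with sand; postemergence plants, 1–4 leaves, are in peat-based medium.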
# corn (Zea mays) = assay: as above; conditions: Postemergence
# Method in brief: as §1
# [2] = tested on: giant foxtail (Setaria faberii); assay: as above; conditions: Postemergence
# Method in brief: as §1
# [3] = tested on: johnsongrass (Sorghum halepense); assay: as above; conditions: Postemergence
# Method in brief: as §1
# [4] = tested on: lambsquarters (Chenopodium album); assay: as above; conditions: Postemergence
# Method in brief: as §1
# [5] = tested on: morningglory (Ipomoea coccinea); assay: as above; conditions: Postemergence
# Method in brief: as §1
# [6] = tested on: pigweed (Amaranthus retroflexus); assay: as above; conditions: Postemergence
# Method in brief: as §1
# soybean (Glycine max) = assay: as above; conditions: Postemergence
# Method in brief: as §1
# [7] = tested on: velvetleaf (Abutilon theophrasti); assay: as above; conditions: Postemergence
# Method in brief: as §1
# [8] = tested on: winter wheat (Triticum aestivum); assay: as above; conditions: Postemergence
# Method in brief: as §1
# [9] = tested on: chickweed (common chickweed, Stellaria media); assay: Test C postemergence greenhouse test, plant response rating 0-100
# Method in brief: (§2)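 Response is a visual 0–100 control rating taken 13 to 15 days post-treatment, with a dash marking no result. Plants ranged 2 to 18 cm when treated postemergence.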
# kochia (Kochia scoparia) = assay: as above
# Method in brief: as §2
# wild oat (Avena fatua) = assay: as above
# Method in brief: as §2
compound,measurement,setting,value
Cn1cc(C(=NN2CCCC2)c2ccccc2)c(-c2cc(Cl)c(Cl)c(Cl)c2)n1 [Compound 25],"Plant response rating (0 to 100), Blackgrass",[1]; 31 g ai/ha,0
same,"Plant response rating (0 to 100), Blackgrass",[1]; 62 g ai/ha,0
same,"Plant response rating, Blackgrass",[1]; 125 g ai/ha,0
same,"Plant response rating, Blackgrass",[1]; 250 g ai/ha,5
same,"Plant response rating (0 to 100), Corn",corn (Zea mays); 31 g ai/ha,0
same,"Plant response rating (0 to 100), Corn",corn (Zea mays); 62 g ai/ha,0
same,"Plant response rating (0 to 100), Corn",corn (Zea mays); 125 g ai/ha,0
same,"Plant response rating, Corn","corn (Zea mays); 250 g ai/ha, scale 0 to 100",0
same,"Plant response rating (0 to 100), Foxtail, Giant",[2]; 31 g ai/ha,0
same,"Plant response rating (0 to 100), Foxtail, Giant",[2]; 62 g ai/ha,0
same,"Plant response rating (0 to 100), Foxtail, Giant",[2]; 125 g ai/ha,0
same,"Plant response rating, Foxtail, Giant","[2]; 250 g ai/ha, scale 0 to 100",0
same,"Plant response rating (0 to 100), Johnsongrass",[3]; 62 g ai/ha,0
same,"Plant response rating (0 to 100), Johnsongrass",[3]; 125 g ai/ha,0
same,"Plant response rating, Johnsongrass","[3]; 250 g ai/ha, scale 0 to 100",0
same,"Plant response rating (0 to 100), Lambsquarters",[4]; 62 g ai/ha,0
same,"Plant response rating (0 to 100), Lambsquarters",[4]; 125 g ai/ha,0
same,"Plant response rating, Lambsquarters","[4]; 250 g ai/ha, scale 0 to 100",20
same,"Plant response rating (0 to 100), Morningglory",[5]; 62 g ai/ha,0
same,"Plant response rating (0 to 100), Morningglory",[5]; 125 g ai/ha,0
same,"Plant response rating, Morningglory","[5]; 250 g ai/ha, scale 0 to 100",0
same,"Plant response rating (0 to 100), Pigweed",[6]; 62 g ai/ha,80
same,"Plant response rating (0 to 100), Pigweed",[6]; 125 g ai/ha,98
same,"Plant response rating, Pigweed","[6]; 250 g ai/ha, scale 0 to 100",100
same,"Plant response rating (0 to 100), Soybean",soybean (Glycine max); 62 g ai/ha,0
same,"Plant response rating (0 to 100), Soybean",soybean (Glycine max); 125 g ai/ha,0
same,"Plant response rating, Soybean","soybean (Glycine max); 250 g ai/ha, scale 0 to 100",10
same,"Plant response rating (0 to 100), Velvetleaf",[7]; 62 g ai/ha,55
same,"Plant response rating (0 to 100), Velvetleaf",[7]; 125 g ai/ha,65
same,"Plant response rating, Velvetleaf","[7]; 250 g ai/ha, scale 0 to 100",70
same,"Plant response rating (0 to 100), Wheat",[8]; 62 g ai/ha,0
same,"Plant response rating (0 to 100), Wheat",[8]; 125 g ai/ha,0
same,"Plant response rating, Wheat","[8]; 250 g ai/ha, scale 0 to 100",0
same,"Plant response rating (0 to 100), Chickweed",[9]; 31 g ai/ha,10
same,"Plant response rating (0 to 100), Chickweed",[9]; 62 g ai/ha,75
same,"Plant response rating (0 to 100), Chickweed",[9]; 125 g ai/ha,75
same,"Plant response rating, Chickweed","[9]; 250 g ai/ha, scale 0 to 100",75
same,"Plant response rating (0 to 100), Kochia",kochia (Kochia scoparia); 62 g ai/ha,0
same,"Plant response rating (0 to 100), Kochia",kochia (Kochia scoparia); 125 g ai/ha,15
same,"Plant response rating, Kochia","kochia (Kochia scoparia); 250 g ai/ha, scale 0 to 100",15
same,"Plant response rating (0 to 100), Oat, Wild",wild oat (Avena fatua); 62 g ai/ha,0
same,"Plant response rating (0 to 100), Oat, Wild",wild oat (Avena fatua); 125 g ai/ha,0
same,"Plant response rating, Oat, Wild","wild oat (Avena fatua); 250 g ai/ha, scale 0 to 100",10
